PubChem BioAssay AID1959 (Broad Institute, 2009)
Active and inactive are the calls of the source.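 Rule for the calls: active = growth-inhibition EC50 no more than tenfold above the top tested dose; inconclusive = flat fit between 30% and 70% inhibition, or unreliable fit; inactive = EC50 more than tenfold above the top tested dose.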

test system: E. coli NEB5alpha growth, BacTiter-Glo luminescence, 4 h; assay: Escherichia coli growth inhibition, dose response, counter-screen for MEX-5/POS-1 RNA-binding inhibitor project, luminescence, NEB5alpha (AID 1959);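 note: pUC19-transformed ampicillin-resistant cells grown in LB with ampicillin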

SMILES	EC50
COC(=O)c1ccccc1NCc1cc(=O)oc2cc(O)c(O)cc12	> 11 µM (inactive)
CCOC(=O)c1c2ccc(OCC(=O)N/N=C/c3ccc(Cl)cc3)cc2n2ccccc12	> 11 µM (inactive)
O=C1NC(=S)N(c2ccc(F)cc2)C(=O)/C1=C/c1ccco1	> 11 µM (inactive)
CC1=C(C#N)C(=O)NC(=O)/C1=C/c1ccc(-c2ccc(S(N)(=O)=O)cc2)o1	> 11 µM (inactive)
CC/C(=C\C=C\[C@@H]1C=C[C@@H]2CCC[C@H]2[C@@H]1C(=O)c1ccc[nH]1)[C@@H]1O[C@@H]([C@@H](C)C(=O)O)CC[C@@H]1C	> 11 µM (inactive)
O=C(Cc1ccccc1)Nc1ccc(N2CCOCC2)cc1N1CCOCC1	> 11 µM (inactive)
CCOC(=O)C1Nc2c(F)cc(C)cc2C2C=CCC12 (configuration not stated)	> 11 µM (inactive)
Cc1nc2sc(-c3ccccc3)cc2c(=O)n1N	> 11 µM (inactive)
CC1(C)CC(=O)C2=C(C1)OC(N)=C(C#N)C21C(=O)N(CN2CCOCC2)c2ccccc21 (configuration not stated)	> 11 µM (inactive)
Cc1cc2nc3ccc(N(C)C)cc3nc2cc1N	> 11 µM (inactive)
CC(Cc1ccc(O)c(O)c1)C(C)Cc1ccc(O)c(O)c1 (configuration not stated)	> 11 µM (inactive)
O=C1N=C(N2CCOCC2)S/C1=C\c1ccc(-c2ccccc2Cl)o1	> 11 µM (inactive)
O=c1[nH]c(=S)[nH]c2[nH]c(=S)[nH]c12	> 11 µM (inactive)
COc1ccc(C2C(C#N)=C(/N=C/N3CCOCC3)OC3=C2C(=O)CC(C)(C)C3)cc1OC (configuration not stated)	> 11 µM (inactive)
Cc1ccc(S(=O)(=O)N(CCCN2CCCC2=O)Cc2cc3c(C)ccc(C)c3[nH]c2=O)cc1	> 11 µM (inactive)
Cc1ccccc1-n1c(O)c(/C=N/NC(=O)c2ccccc2O)c(=O)[nH]c1=S	> 11 µM (inactive)
C=CCn1c(Cc2nc3ccccc3[nH]2)n[nH]c1=S	> 11 µM (inactive)
CC1(C)CC(=O)C2=C(C1)OC(N)=C(C#N)C2c1ccc(OC(=O)N2CCOCC2)cc1 (configuration not stated)	> 11 µM (inactive)
Oc1[nH]c2ccccc2c1N=Nc1cccc(Cl)c1	> 11 µM (inactive)
COc1cccc(/C=C2\SC(=S)N(CCCC(=O)NC3=NCCS3)C2=O)c1	> 11 µM (inactive)
O=C(O)c1ccccc1-n1c2ccccc2c2ccccc21	> 11 µM (inactive)
Oc1c(C=Nc2ccccc2Cl)[nH]c2ccccc12	> 11 µM (inactive)
COc1ccc(C2C(C#N)=C(N)OC3=C2C(=O)CC(C)C3)c(OC)c1OC (configuration not stated)	> 11 µM (inactive)
Cc1nn2c(N3CCOCC3)c3c(nc2c1-c1ccccc1)CCCC3	> 11 µM (inactive)

SMILES	EC50
O=C(O)c1cc(O)c2c(c1)C(=O)c1cccc(O)c1C2=O	> 11 µM (inactive)
COC(=O)CCCC1=CC2=CC(=O)C(C)(OC(=O)c3cccs3)C(=O)C2=CO1 (configuration not stated)	> 11 µM (inactive)
Cc1nc(-c2ccc(O)c(O)c2)cs1	> 11 µM (inactive)
CCCCN(C)C(=O)CCC(=O)NNc1nc2ccccc2c2nc(C)nn12	> 11 µM (inactive)
COc1ccccc1-c1cnn2c(NCc3ccccc3)cc(C)nc12	> 11 µM (inactive)
COCCN1C(=O)/C(=C/c2c(OC)cc(OC)cc2OC)C(=O)N(c2ccccc2)C1=O	> 11 µM (inactive)
CC1(C)CCCN(C(=O)c2coc(=O)c(Br)c2)C1	> 11 µM (inactive)
CCOC(=O)c1c(-c2ccccc2)csc1NC(=O)/C(C#N)=C/c1ccc(OC)c(OC)c1	> 11 µM (inactive)
CCN(CC)CCN1C(=O)C(O)=C(C(=O)c2cc3cccc(OC)c3o2)C1c1ccc(F)cc1 (configuration not stated)	> 11 µM (inactive)
COc1ccc(/C=c2\sc3nc(=O)c(C)nn3c2=O)c(OC)c1	> 11 µM (inactive)
COc1ccc(C(=O)/C=C/c2ccc(N3CCCCC3)c([N+](=O)[O-])c2)c(OC)c1	> 11 µM (inactive)
CCOc1ccc(NC(=O)COc2ccccc2)c([N+](=O)[O-])c1	> 11 µM (inactive)
O=C1C2=C(SCCS2)C(=O)N1c1ccccc1	> 11 µM (inactive)
O=C1C2CC=C(Cl)CC2C(=O)N1CC1Cc2ccccc2CO1 (configuration not stated)	> 11 µM (inactive)
CCOC(=O)/C=c1\s/c(=C\c2ccc3cc(OC)ccc3c2)c(=O)n1CC(=O)NCC1CCCO1 (configuration not stated)	> 11 µM (inactive)
Cc1cccn2c(=O)c3cc(C(=O)NC4CCCCC4)c(=N)n(Cc4ccccc4)c3nc12	> 11 µM (inactive)
CC(C)c1ccc(/C=C(\NC(=O)c2ccccc2)C(=O)NCCN2CCOCC2)cc1	> 11 µM (inactive)
CC1CCc2nn(CC(=O)NCCN3CCCCC3C)cc2C1 (configuration not stated)	> 11 µM (inactive)
COc1ccc2nc3ccccc3nc2c1NC(=O)c1ccc(Br)cc1	> 11 µM (inactive)
COCCN1CCC(CNCc2cn[nH]c2-c2ccc(C)c(C)c2)C1 (configuration not stated)	> 11 µM (inactive)
COc1ccc(OC)c(N=Cc2c(O)n(Cc3ccccc3)c(=S)[nH]c2=O)c1	> 11 µM (inactive)
CN1CC=C2C(C#N)=C(N)C(C#N)(C#N)C(c3cccc(Cl)c3Cl)C2C1 (configuration not stated)	> 11 µM (inactive)
Cc1n[nH]c(C)c1Sc1ccccc1N=Cc1cc(Cl)cc([N+](=O)[O-])c1O	> 11 µM (inactive)
